# Source: US12065468B2, “Heme-binding small peptide” (priority 2021, dated 2024)
# Entries after “also recorded” stand apart in the source; their conditions may differ.
# Columns and labels:
# [1] = Biolayer interferometry of heme binding
# Description: Biotinylation of heme: Hemin was biotinylated using the method exactly as described previouslyl^16. Biotin hydrazide, DCC was purchased from Sigma. COSMOSIL™ 5C18-AR-II Packed Column, 4.6 mm I.D.×150 mm from Nacalai USA (San Diego, CA) was used to separate the products. LC-MS was used to verify the correct molecular weight (969.4 Da) of biotinylated heme (in which only one of the two propionate groups of protoheme was conjugated with biotin hydrazide) as described above.
# Biolayer interferometry: Biolayer interferometry was carried out using a ForteBio Octet RED96™ biolayer interferometer, following the manufacturer's instructions for a standard kinetic assay. Streptavidin-coated biosensor tips were incubated in 200 μl assay buffer (Water [pH 7.4]), each for 60s. Then biotinylated heme (or NCR247 in the case of Fe(III) PPIX dimethyl ester chloride) was loaded onto each biosensor tip at the defined concentration until the binding signal reached a value of >1.4. Biosensor tip loading was followed by incubation in assay buffer for 60s. Association between the ligand-heme and the analyte-various variants of NCR247 (Increasing concentrations in assay buffer) was observed over a time frame of ˜116 s, in assay buffer. To stop binding kinetics for dissociation, the biosensor tips were placed back into assay buffer not containing any analyte, for 120 s. Curves were fit with Global fit analysis and Data analysis and KD calculation was performed using Fortebio™ data analyses 8.2 software as described previously^89.
# [2] = tested on: Cytochrome c; test: UV-Vis test of heme sequestration from Cytochrome c; assay type: binding; settings: excess NCR247
# Experimental: FIG. 13. […] The absorption spectrum of Cytochrome c remains unaltered even after addition of excess NCR247.
# (§1) UV-VIS spectroscopy: All absorption spectra were collected in a Tecan Spark™ 10 M microplate reader using black polystyrene 96-well plates. Absorbance from 300 nm to 700 nm was recorded with a 5 nm interval after an initial shaking at 100 rpm for 15 secs. Heme binding to synthesized peptide: Water (pH 7.4) was used in all reactions and was first added to the wells. Peptides solubilized in water were added and then heme solubilized in 0.1 M NaOH was added, mixed thoroughly and measurements were taken immediately. Peptide and heme volume were kept to a maximum of 5 ul in volume. For all the absorption curves (except Extended FIG. 3a) […] was used. The same was also repeated with 0.1 M Tris buffer (pH 7.4) as a base buffer instead of water.
# [3] = tested on: Haemophilus influenzae; test: Cell viability assay for H. influenzae; assay type: cell-based; settings: 24 hours, BHI with 7.5 μM hemin
# Experimental: Cell viability assays for H. influenza and P. gingivalis: Haemophilus influenzae Rd [KW20] was obtained from ATCC (51907). Standard growth and culturing techniques were followed as described previously^92. Cultures were grown in Brain Heart Infusion broth (BHI) supplemented with 7.5 μM of hemin and 2 μg/ml NAD with or without the addition of peptide for 24 hours. The number of viable cells for every reaction mixture was then determined by serially diluting and spotting 10-μl aliquots in triplicates on BHI agar plates supplemented with 15 μM hemin and 3 μM NAD. Porphyromonas gingivalis 2561 was obtained from ATCC (33277). Pre-reduced, anaerobically sterilized Brucella Broth and BRU—Brucella Blood Agar—were purchased from Anaerobe systems (CA, USA). They were opened just before use. Static cultures and plates were incubated at 37° C. in an incubation chamber from BD GasPak™ EZ Container Systems. Anaerobic conditions were maintained by using BD BBL CO2 gas generators and BD BB GasPak™ CO2 indicators. Cultures were grown anaerobically in Brucella Broth with or without addition of peptides for 48 hours and viable cells for every reaction mixture were then determined by serially diluting and spotting 10-μ1 aliquots in triplicates on Brucella Blood Agar.
# [4] = biological target: T1, Aβ-heme complex (Homo sapiens, UniProt P05067); test: UV-Vis spectrum of Aβ-heme complex with NCR247; assay type: binding
# T1 construct: equimolar addition of NCR247 to the Aβ (1-42) amyloid peptide-heme complex; purchased Genscript
# Experimental: FIG. 4. […] In a, b and e, data are presented as mean of three independent replicates ±s.d. In a and b ****P<0.0001 vs untreated sample; two-way analysis of variance (ANOVA) with multiple comparisons.
# as §1
# [5] = tested on: ctrA; test: qRT-PCR of ctrA; assay type: cell-based, Sinorhizobium meliloti; settings: 2 μM, 30 mins; listed as L-NCR247
# Experimental: FIG. 16. […] The data are expressed as starting quantities (SQ) of respective mRNAs normalized to the control gene SMc00128 and are presented as average of three technical replicates
# (§2) RNA isolation and qRT-PCR analysis: Cells were grown in LB until they reached an O.D.600 nm of 0.2. Then cells were spun down and suspended in minimal media with or without appropriate FeSO4 concentrations for 1 hour. NCR247 was then added and 5 ml of appropriate cultures were spun down at given time intervals. Total RNA was extracted using Trizol™ (Thermo Fisher Scientific) method. Qiagen RNeasy™ kit was used to purify the RNA. On-column DNA removal was carried out using DNase I from NEB. 500 ng of each RNA sample was used to make cDNA using the iScript™ cDNA synthesis kit (Biorad). qRT-PCRs were performed as described previously^86. The standard curve method was used for relative quantification. In short, a standard curve was generated for each gene of interest (including SMc00128) by setting up qpCR reactions to amplify increasing amounts of S. meliloti Rm 1021 genomic DNA. […] This curve was then used for extrapolating relative expression level of each gene of interest in a particular sample to obtain the starting quantities (SQ). […] These normalized values are then expressed as an average of triplicates, with standard deviation (s.d.) represented by the error bars. […]
# [6] = tested on: ndvA (FeuP regulated), SMc 01581 (ExoS regulated); test: qRT-PCR of FeuP and ExoS regulated genes; assay type: cell-based, Sinorhizobium meliloti; settings: 2 μM, 30 mins; listed as L-NCR247
# Description: FIG. 17. […] The data are expressed as starting quantities (SQ) of respective mRNAs normalized to the control gene SMc00128 and are presented as average of three technical replicates FIG. 18. NCR247 binds heme and this heme sequestration leads to an iron starvation response in S. meliloti and this happens in the cytoplasm since a bacA mutant is defective in inducing iron import genes. […] The data are expressed as starting quantities (SQ) of respective mRNAs normalized to the control gene SMc00128 and are presented as average of three technical replicates. […] Data are presented as average of three technical replicates
# as §2, with “On-column DNA removal was carried out using DNase I from NEB. 500 ng of each RNA sample was used to make cDNA using the iScript™ cDNA synthesis kit (Biorad). qRT-PCRs were performed as described previously^86.” left out, “quantification.” for “quantification. In short, a standard curve was generated for each gene of interest (including SMc00128) by setting up qpCR reactions to amplify increasing amounts of S. meliloti Rm 1021 genomic DNA.”
# [7] = Water solubility
# T1 sequence (P05067 672-713, one chain of several): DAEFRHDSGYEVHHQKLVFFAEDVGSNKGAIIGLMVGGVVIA
sequence,measurement,setting,value
RNGCIVDPRCPYQQCRRPLYCRRR [NCR247],Kd,"[1]; biotinylated heme as ligand, peptide as analyte",~1 nM
same,"heme binding affinity, in words",[1]; compared with NCR247 (L-enantiomer),binds heme with nanomolar affinity
same,sequestration of heme from Cytochrome c,[2],cannot sequester cytochrome heme; also recorded: inability of NCR247 to sequester heme from Cytochrome c
same,growth / viable cell number of H. influenzae,[3],can prevent the growth; also recorded: can block the growth
same,growth / viable cell number of H. influenzae,[3]; listed as L-NCR247,Reduction of viable cell number
same,removal of heme from Aβ-heme complex,[4],can strip the heme out of the Aβ-heme complex
same,expression of ctrA,[5],lowers the expression of CtrA; also recorded: decrease in expression of ctrA
same,expression of FeuP and ExoS regulated genes,[6],increased in expression; also recorded: increase in expression of ndvA
same,water solubility,[7],highly water soluble
